What was measured:
[1] = tested on: hiPSC-derived nerve cells overexpressing tau (1N4R); assay: Nerve cell death / cell survival by CellTiter Glo assay after overexpression of tau; assay type: cell-based, human; details: compound added at replating, 2 days before lentivirus infection, cultured about 7 days, FIG. 8
Description: (§1) Frozen nerve cells were thawed in a hot water bath and plated on a 96-well plate at the number of cells of about 3×10^4 cells/well or on a 12-well plate at about 30×10^4 cells/well, where the plates had been coated with poly-D-lysine (PDL) and iMatrix (Nippi, Incorporated), in a neural replating medium containing DOX (a medium obtained by adding 2% of a B27 Plus supplement, 1% of a Culture One supplement, 200 μmol/L of dbcAMP, 200 μmol/L of L-ascorbic acid, and 2 μg/mL of DOX to a Neurobasal plus:DMEM/F12 HAM=1:1 medium). In addition, 1 μmol/L of Tau Accell siRNA (Dharmacon, Inc., #A-012488-13) described in (7) below or a compound described in (9) below was added thereto. After the culture in a CO2 incubator at 37° C. for 2 days, the cells were […] and cultured for about 7 days, and then various evaluations were carried out.
The decrease in cell survival rate due to overexpression of tau according to the method (4) was confirmed by the CellTiter Glo assay (Promega Corporation). It was confirmed that about 20% to 90% of nerve cell death occurred due to overexpression of tau depending on the amount of lentivirus.
According to the method (4), the drug efficacy of methylene blue and isoproterenol, which had been reported to have an inhibitory action on tau aggregation in nerve cells after the overexpression of tau, and a microtubule stabilizer epothilone D was evaluated. The cytoprotective action of the compound was measured by a CellTiter Glo assay. The effect on tau aggregation was quantified by standardizing the Tau oligomer antibody-positive protrusion length in the neurite obtained by fluorescent staining with the 4R tau antibody-positive protrusion length.

[2] = biological target: T1, tau aggregation in hiPSC-derived nerve cells overexpressing tau (1N4R) (Homo sapiens, UniProt P10636); assay: Tau aggregation: Tau oligomer antibody (T22)-positive protrusion length standardized with 4R tau antibody-positive protrusion length; assay type: cell-based; details: at the compound concentration at which a cytoprotective action was exhibited; fluorescent staining; FIG. 8
T1 construct: expressed in transfected cells; host or cells: human iPS cell-derived nerve cells (Ngn2 / miR-9/9*-124 induced), transduced with CSII-TRE-hTau (1N4R)-IRES-Zeo lentivirus, DOX-induced
Description: as §1
The nerve cells after the overexpression of tau according to the method (4) were subjected to fluorescent staining using a tau oligomer antibody (T22) (Merck Millipore).
The cytoprotective action of the compound was measured by a CellTiter Glo assay. The effect on tau aggregation was quantified by standardizing the Tau oligomer antibody-positive protrusion length in the neurite obtained by fluorescent staining with the 4R tau antibody-positive protrusion length.

T1 sequence (P10636 1-412 isoform P10636-7): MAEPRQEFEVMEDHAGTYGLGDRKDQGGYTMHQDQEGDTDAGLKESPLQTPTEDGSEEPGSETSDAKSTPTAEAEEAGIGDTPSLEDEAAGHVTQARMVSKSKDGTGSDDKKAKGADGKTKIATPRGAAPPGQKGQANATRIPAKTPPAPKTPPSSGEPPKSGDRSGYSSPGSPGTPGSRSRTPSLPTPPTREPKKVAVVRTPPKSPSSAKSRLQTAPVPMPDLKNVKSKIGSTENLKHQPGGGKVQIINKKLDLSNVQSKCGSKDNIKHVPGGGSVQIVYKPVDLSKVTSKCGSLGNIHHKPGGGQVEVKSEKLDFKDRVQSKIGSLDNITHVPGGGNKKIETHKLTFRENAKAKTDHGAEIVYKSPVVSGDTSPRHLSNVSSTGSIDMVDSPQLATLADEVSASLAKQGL

Compound	cytoprotective action (CellTiter Glo assay) [1]	effect on tau aggregation (tau polymerization) [2]
CC(C)NCC(O)c1ccc(O)c(O)c1 (stereo not drawn) [isoproterenol]	partial cytoprotective action	partial inhibitory action on tau aggregation
C/C1=C/C[C@@H](/C(C)=C/c2csc(C)n2)OC(=O)C[C@H](O)C(C)(C)C(=O)[C@H](C)[C@@H](O)[C@@H](C)CCC1 [epothilone D]	partial cytoprotective action	not changed
CN(C)c1ccc2nc3ccc(=[N+](C)C)cc-3sc2c1 [methylene blue]	partial cytoprotective action	partial inhibitory action on tau aggregation

Reference: patent US20220315890A1, “NERVE CELL AND APPLICATION THEREOF” (FUJIFILM Corporation, priority 2021, published 2022)
